Laboratory results from PubChem BioAssay (NCI).
Several values for one entry are separate records, joined by “and”; a condition that tells them apart may be missing. Equal entries are not always repeated.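 These data come from cells grown in 96-well plates and exposed to compound for 48 hours at five concentrations. The concentration for 50% growth inhibition is given as GI50. TGI is the concentration that stops growth completely.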 Where a SMILES comes first, the peptide text is derived from it. [ ]: non-standard residue; d: D form. The star is where a group is joined. NMeF = CN[CH](Cc1ccccc1)C(=O)O; NMeV = CN[CH](C(=O)O)C(C)C; Boc = CC(C)(C)OC(=O)*

Columns and labels:
Assay in all cases: NCI anticancer screen, dose series, 48 h
MALME-3M melanoma = system: MALME-3M melanoma
SW-620 colon = system: SW-620 colon
RPMI-8226 leukemia = system: RPMI-8226 leukemia
EKVX NSCLC = system: EKVX NSCLC
UACC-62 melanoma = system: UACC-62 melanoma
TK-10 renal = system: TK-10 renal
HL-60(TB) leukemia = system: HL-60(TB) leukemia
U251 CNS = system: U251 CNS
CAKI-1 renal = system: CAKI-1 renal
SNB-75 CNS = system: SNB-75 CNS

| SMILES | TGI (MALME-3M melanoma) | TGI (SW-620 colon) | TGI (RPMI-8226 leukemia) | TGI (EKVX NSCLC) | TGI (UACC-62 melanoma) | TGI (TK-10 renal) [µM] | TGI (HL-60(TB) leukemia) [µM] | TGI (U251 CNS) | TGI (CAKI-1 renal) [µM] | GI50 (MALME-3M melanoma) [µM] | GI50 (SW-620 colon) [µM] | GI50 (RPMI-8226 leukemia) [µM] | GI50 (SNB-75 CNS) [µM] | TGI (SNB-75 CNS) [µM] | GI50 (EKVX NSCLC) [µM] | GI50 (TK-10 renal) [µM] | GI50 (HL-60(TB) leukemia) [µM] | GI50 (U251 CNS) [µM] | GI50 (CAKI-1 renal) [µM] | GI50 (UACC-62 melanoma) [µM] |
| --- | --- | --- | --- | --- | --- | --- | --- | --- | --- | --- | --- | --- | --- | --- | --- | --- | --- | --- | --- | --- |
| O=C1CCN2C(=O)CCN12 | > 100 µM | > 100 µM | > 100 µM | > 100 µM | > 100 µM | > 100 | > 100 | > 100 µM | > 100 | – | – | – | – | – | – | – | – | – | – | – |
| CCOC(=O)c1c(C)n(Cc2ccc(Cl)cc2Cl)c2c1c(CN(C)C)c(O)c1[nH]cnc12 | 42.9 µM | 34.3 µM | 22.1 µM | 42.9 µM | – | 39.1 | 8.33 | 27.9 µM | 37.9 | 21.2 | 20.1 | 7.95 | 3.55 | 17 | 22.5 | 22.7 | 2.01 | 14.8 | 18.4 | – |
| NCCCCN(CCCN)/[N+]([O-])=N\O | > 100 µM | > 100 µM | > 100 µM | – | > 100 µM | – | > 100 | > 100 µM | > 100 | – | – | – | – | > 100 | – | – | – | – | – | – |
| C1=CC2SSSC2C1 (stereo unspecified) | > 100 µM | > 100 µM | > 100 µM | > 100 µM | > 100 µM | > 100 | > 100 | > 100 µM | – | – | – | – | – | > 100 | – | – | – | – | – | – |
| CC1CC[C@]2(C(=O)O)CCC3(C)C(=CC(=O)C4[C@@]5(C)CCC(=O)C(C)(C)C5CC[C@]43C)[C@@H]2[C@H]1C (stereo partly specified) | 80.3 µM | > 100 µM | – | > 100 µM | 30.6 µM | 90.2 | 24.7 | 98.8 µM | > 100 | – | – | – | – | > 100 | – | – | – | – | – | – |
| O=C1OC(c2ccccc2)=N/C1=C\c1cccc2ccccc12 | > 100 µM | > 100 µM | > 100 µM | – | > 100 µM | > 100 | > 100 | > 100 µM | > 100 | – | – | – | – | > 100 | – | – | – | – | – | – |
| CC(C)C(NC(=O)OC(C)(C)C)C(=O)N(C)C(Cc1ccccc1)C(=O)N(C)C(C(=O)O)C(C)C (stereo not drawn) (Boc-Val-[NMeF]-[NMeV]-OH; configuration not given here) | > 100 µM | > 100 µM | > 100 µM | > 100 µM | > 100 µM | > 100 | > 100 | > 100 µM | – | – | – | – | – | – | – | – | – | – | – | – |
| COc1ccc(-c2n[nH]nc2-c2cc(OC)c(OC)c(OC)c2)cc1 | – | > 100 µM | > 32.4 µM | 29.6 µM | 24.6 µM | 50.2 | < 0.01 | – | > 56.4 | – | < 0.01 | < 0.01 | < 0.01 | 92.9 | < 0.01 | – | < 0.01 | < 0.01 | < 0.01 | < 0.01 |
| Cc1cccc(NC(=O)/C(=N\NC(C)(C)C)C2NC(=S)NC2=O)c1C (stereo unspecified) | > 100 µM | > 100 µM | > 100 µM | > 100 µM | > 100 µM | > 100 | > 100 | > 100 µM | > 100 | – | – | – | – | – | – | – | – | – | – | – |
| C[C@@]12CC=C3c4nc(Nc5cccc(O)c5)sc4CC[C@]3(C)[C@H]1CC[C@]1(C)C(=O)CC[C@@H]21 | – | 4.82 µM | 4.52 µM | 83.3 µM | 5.25 µM | 6.44 | 6.48 | 16.9 µM | 3.28 | – | 2.13 | 0.669 | 3.19 | > 100 | 5.93 | 2.18 | 2.35 | 2.24 | 1.7 | 2.08 |
| COc1cc(/C=C/c2cc(/C=C/c3ccc(O)c(OC)c3)n(C(=O)Nc3ccc(F)c(Cl)c3)n2)ccc1O | 2.48 µM | – | 1.73 µM | 6.98 µM | 1.99 µM | 3.56 | 0.88 | – | 4.92 | 1.05 | – | 0.365 | – | – | 1.22 | 0.58 | 0.31 | – | 0.35 | 0.452 |
| CCCCC(O)(c1ccc(Cl)cc1)C(CN1CCOCC1)c1ccc(Cl)cc1 (stereo unspecified) | 33.8 µM | 25.3 µM | 36.2 µM | – | 28.7 µM | 31.2 | 39.5 | 27.5 µM | 32.6 | 15.6 | 11.5 | 10.4 | 16.8 | 44.7 | – | 16.6 | 16.7 | 13.6 | 14.6 | 12.4 |
| NP(=O)(Oc1c2occc2cc2ccc(=O)oc12)N(CCCl)CCCl (stereo unspecified) | > 100 µM | > 100 µM | > 100 µM | > 100 µM | > 100 µM | > 100 | > 100 | > 100 µM | > 100 | – | – | – | – | – | – | – | – | – | – | – |
| CC(=O)/C(C)=N/NC(=O)c1ccccc1O | > 100 µM | > 100 µM | > 100 µM | > 100 µM | > 100 µM | > 100 | – | > 100 µM | > 100 | > 100 | > 100 | > 100 | > 100 | > 100 | > 100 | > 100 | – | > 100 | > 100 | > 10 |
| CC(=O)CSCc1ccccn1 | 9.99 µM | > 100 µM | 36.8 µM | > 100 µM | > 100 µM | > 100 | 64.5 | > 100 µM | – | – | – | – | – | 71.9 | – | – | – | – | – | – |
| Cc1ccn2c(c1)nc1nc3ccccc3nc12 | – | > 100 µM | > 100 µM | > 100 µM | > 100 µM | > 100 | > 100 | > 100 µM | > 100 | – | – | – | – | > 100 | – | – | – | – | – | – |
| COc1cccc2c1C(=O)c1c(O)c3c(c(O)c1C2=O)C[C@@](O)(C(C)=O)C[C@@H]3OC1OC(C)C(O)C(N)C1Br (stereo partly specified) | 0.297 µM and 0.225 µM | 0.766 µM and 1.46 µM | 0.702 µM and 0.263 µM | 5.04 µM and 1.98 µM | 0.892 µM and 0.424 µM | 0.407 | – | 1.07 µM and 2.21 µM | 0.257 | 0.0215 | 0.0266 | 0.0124 | 0.151 | – | 0.195 | – | – | – | – | 0.0459 |
| CCOC(=O)CC1(C(=O)OCC)c2[nH]c3ccccc3c2CCN1Cc1ccccc1 (stereo unspecified) | 37.3 µM | > 100 µM | – | 50.8 µM | 32.2 µM | > 100 | 62.5 | 29 µM | 99.2 | – | – | – | – | 45.8 | – | – | – | – | – | – |
| Clc1nc(Cl)c(Cl)c(-c2ccccc2)n1 | 53.7 µM | 5.62 µM | > 100 µM | 30.7 µM | – | 32.9 | > 100 | 30.3 µM | – | – | – | – | – | 21.5 | – | – | – | – | – | – |
